In patent US9284283B2, “Macrocyclic compounds for modulating IL-17” (ENSEMBLE THERAPEUTICS CORPORATION, priority 2012, dated 2016):

Target: T1, biotinylated human IL-17 (binding to IL17R/Fc) (Homo sapiens, UniProt Q16552)
T1 construct: purchased R&D Systems 317-ILB (IL-17, biotinylated); 177-IR (IL17R/Fc)
T1 sequence (Q16552 20-155 limits assumed): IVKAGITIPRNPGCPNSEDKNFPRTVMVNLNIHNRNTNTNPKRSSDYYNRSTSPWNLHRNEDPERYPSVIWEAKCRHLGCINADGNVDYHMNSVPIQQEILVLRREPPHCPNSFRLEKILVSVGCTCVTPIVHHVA
Assay: IL-17 competition ELISA II (captured IL17R/Fc, biotinylated IL-17)
In short: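 Competition read-out: absorbance at 450 nm after streptavidin-HRP/TMB detection, fitted to a 4-parameter logistic model bounded by no-competitor and blank wells to give IC50. Compound was serially diluted 5-fold from 1 μM alongside 20 nM (stock) biotinylated IL-17 on IL17R/Fc (10 nM) captured via goat anti-human IgG, 30 min at room temperature.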

SMILES | IC50
CN1CCOCCOCCNC(=O)[C@@H](Cc2ccc(NC(=O)[C@H](CC3CCCCC3)NC(=O)C(F)(F)c3ccccc3)cc2)NC(=O)CC2(CCCC2)CC1=O [Compound 613] | < 100 nM
CN1CCOCCOCCNC(=O)[C@@H](Cc2ccc(NC(=O)[C@H](CC3CCCCC3)NC(=O)Cc3ccc(N(C)C)cc3)cc2)NC(=O)CC2(CCCC2)CC1=O [Compound 614] | < 100 nM
CN1CCOCCOCCNC(=O)[C@@H](Cc2ccc(NC(=O)[C@H](CC3CCC3)NC(=O)C(F)(F)c3ccccc3)cc2)NC(=O)CC2(CCCC2)CC1=O [Compound 615] | < 100 nM
CN1CCOCCOCCNC(=O)[C@@H](Cc2ccc(NC(=O)[C@H](CC3CCC3)NC(=O)Cc3ccc(N(C)C)cc3)cc2)NC(=O)CC2(CCCC2)CC1=O [Compound 616] | < 100 nM
C[C@H]1NC(=O)[C@@H](Cc2ccc(NC(=O)[C@H](Cc3ccccc3Cl)NC(=O)Cc3ccc(F)cc3)cc2)NC(=O)CC2(CCCC2)NC(=O)CCCCCNC1=O [Compound 617] | < 100 nM
C[C@H]1NC(=O)[C@@H](Cc2ccc(NC(=O)[C@H](Cc3ccccc3Cl)NC(=O)Cc3ccc(F)cc3)cc2)NC(=O)CC2(CCCC2)NC(=O)CCCCCCNC1=O [Compound 618] | < 100 nM
C[C@H]1NC(=O)[C@@H](Cc2ccc(NC(=O)[C@H](Cc3ccccc3Cl)NC(=O)Cc3ccc(F)cc3)cc2)NC(=O)CC2(CCCC2)NC(=O)CCCCCCCNC1=O [Compound 619] | < 100 nM
C[C@H]1NC(=O)[C@@H](Cc2ccc(NC(=O)[C@H](Cc3ccccc3Cl)NC(=O)Cc3ccc(F)cc3)cc2)NC(=O)CC(C)(C)NC(=O)CCCCCCNC1=O [Compound 620] | < 100 nM
C[C@H]1NC(=O)[C@@H](Cc2ccc(NC(=O)[C@H](Cc3ccccc3Cl)NC(=O)Cc3ccc(F)cc3)cc2)NC(=O)CC2(CCCCC2)NC(=O)CCCCCCNC1=O [Compound 621] | < 100 nM
C[C@H]1NC(=O)[C@@H](Cc2ccc(NC(=O)[C@H](Cc3ccccc3Cl)NC(=O)Cc3ccc(F)cc3)cc2)NC(=O)CC2(CCOCC2)NC(=O)CCCCCCNC1=O [Compound 622] | 100 to 1000 nM
C[C@H]1NC(=O)[C@@H](Cc2ccc(NC(=O)[C@@H](NC(=O)Cc3ccc(F)cc3)C3CCCCC3)cc2)NC(=O)CC2(CCCC2)CC(=O)N(C)CCCCCN(C)C1=O [Compound 623] | < 100 nM
COC(=O)N[C@H](C(=O)Nc1ccc(C[C@H]2NC(=O)CC3(CCCC3)CC(=O)N(C)CCOCCOCCNC2=O)cc1)C1CCCCC1 [Compound 624] | > 10000 nM
COC(=O)N[C@H](C(=O)Nc1ccc(C[C@H]2NC(=O)CC3(CCCC3)CC(=O)N(C)CCCCCN(C)C(=O)[C@@H](C)NC2=O)cc1)C1CCCCC1 [Compound 625] | 100 to 1000 nM
C[C@H]1NC(=O)[C@@H](Cc2ccc(NC(=O)[C@H](Cc3ccccc3Cl)NC(=O)Cc3cccnc3)cc2)NC(=O)CC2(CCCC2)CC(=O)N(C)CCCCCN(C)C1=O [Compound 628] | < 100 nM
CN1CCCCCN(C)C(=O)[C@@H](Cc2ccncc2)NC(=O)[C@@H](Cc2ccc(NC(=O)[C@H](Cc3ccccc3Cl)NC(=O)Cc3cccnc3)cc2)NC(=O)CC2(CCCC2)CC1=O [Compound 629] | < 100 nM
C[C@H]1NC(=O)[C@@H](Cc2ccc(NC(=O)[C@H](Cc3cccs3)NC(=O)C(F)(F)c3ccccc3)cc2)NC(=O)CC2(CCCC2)CC(=O)N(C)CCCCCN(C)C1=O [Compound 630] | < 100 nM
C[C@H]1NC(=O)[C@@H](Cc2ccc(NC(=O)[C@@H](NC(=O)C(F)(F)c3ccccc3)C3Cc4ccccc4C3)cc2)NC(=O)CC2(CCCC2)CC(=O)N(C)CCCCCN(C)C1=O [Compound 631] | < 100 nM
COC(=O)N[C@H](C(=O)Nc1ccc(C[C@H]2NC(=O)CC3(CCCC3)CC(=O)NCCOCCOCCNC2=O)cc1)C1CCCCC1 [Compound 632] | 100 to 1000 nM
C[C@H]1NC(=O)[C@@H](Cc2ccc(NC(=O)[C@H](Cc3ccccc3Cl)NC(=O)C(F)(F)c3ccccc3)cc2)NC(=O)C[C@H](Cc2ccccc2)NC(=O)CCNC(=O)CCNC1=O [Compound 633] | < 100 nM
C[C@H]1NC(=O)[C@@H](Cc2ccc(NC(=O)[C@H](Cc3ccccc3Cl)NC(=O)C(F)(F)c3ccccc3)cc2)NC(=O)C[C@@H](Cc2ccccc2)NC(=O)CCNC(=O)CCNC1=O [Compound 634] | < 100 nM
C[C@H]1NC(=O)[C@@H](Cc2ccc(NC(=O)[C@H](Cc3ccccc3Cl)NC(=O)C(F)(F)c3ccccc3)cc2)NC(=O)CC2(CCCC2)NC(=O)CCNC(=O)CCNC1=O [Compound 635] | < 100 nM
C[C@H]1NC(=O)[C@@H](Cc2ccc(NC(=O)[C@H](Cc3ccccc3Cl)NC(=O)C(F)(F)c3ccccc3)cc2)NC(=O)CC2(CCCC2)NC(=O)CCNC(=O)CCN(C)C1=O [Compound 636] | < 100 nM
CN1CCOCCN(C)C(=O)[C@@H](Cc2ccccn2)NC(=O)[C@@H](Cc2ccc(NC(=O)[C@H](Cc3ccccc3Cl)NC(=O)C(F)(F)c3ccccc3)cc2)NC(=O)CC2(CCCC2)CC1=O [Compound 637] | < 100 nM

SMILES | IC50
CN1CCOCCN(C)C(=O)[C@@H](Cc2cccnc2)NC(=O)[C@@H](Cc2ccc(NC(=O)[C@H](Cc3ccccc3Cl)NC(=O)C(F)(F)c3ccccc3)cc2)NC(=O)CC2(CCCC2)CC1=O [Compound 638] | < 100 nM
CN1CCOCCOCCNC(=O)[C@@H](Cc2ccc(NC(=O)[C@@H](NC(=O)Cc3ccc(N(C)C)cc3)C3CCCCC3)cc2)NC(=O)CC2(CCCC2)CC1=O [Compound 640] | < 100 nM
CN(C)CCCC[C@H]1NC(=O)[C@@H](Cc2ccc(NC(=O)[C@H](Cc3ccccc3Cl)NC(=O)C(F)(F)c3ccccc3)cc2)NC(=O)CC2(CCCC2)CC(=O)N(C)CCOCCN(C)C1=O [Compound 641] | < 100 nM
CN(C)CC[C@H]1NC(=O)[C@@H](Cc2ccc(NC(=O)[C@H](Cc3ccccc3Cl)NC(=O)C(F)(F)c3ccccc3)cc2)NC(=O)CC2(CCCC2)CC(=O)N(C)CCOCCN(C)C1=O [Compound 642] | < 100 nM
CC(c1ccccc1)C(NC(=O)C(F)(F)c1ccccc1)C(=O)Nc1ccc(C[C@H]2NC(=O)CC3(CCCC3)CC(=O)N(C)CCOCCOCCNC2=O)cc1 (stereo partly drawn) [Compound 643] | < 100 nM
C[C@H]1NC(=O)[C@@H](Cc2ccc(NC(=O)[C@@H](NC(=O)Cc3ccc(N(C)C)cc3)C3Cc4ccccc4C3)cc2)NC(=O)CC2(CCCC2)CC(=O)N(C)CCCCCN(C)C1=O [Compound 644] | < 100 nM
O=C1CC2(CCCC2)CC(=O)N[C@H](Cc2ccc(NC(=O)[C@@H](NC(=O)Cc3cccc(O)c3)C3CCCCC3)cc2)C(=O)NCCOCCOCCN1 [Compound 647] | < 100 nM
CN1CCOCCN(C)C(=O)[C@@H](CCS(C)(=O)=O)NC(=O)[C@@H](Cc2ccc(NC(=O)[C@H](Cc3ccccc3Cl)NC(=O)C(F)(F)c3ccccc3)cc2)NC(=O)CC2(CCCC2)CC1=O [Compound 649] | < 100 nM
CN1CCOCCN(C)C(=O)[C@@H](Cc2cccnc2)NC(=O)[C@@H](Cc2ccc(NC(=O)[C@@H](NC(=O)C(F)(F)c3ccccc3)C3CCCCC3)cc2)NC(=O)CC2(CCCC2)CC1=O [Compound 650] | < 100 nM
NC(=O)CC[C@@H]1NC(=O)[C@@H](Cc2ccc(NC(=O)[C@H](Cc3ccccc3Cl)NC(=O)Cc3ccc(F)cc3)cc2)NC(=O)CC2(CCCC2)CC(=O)N[C@H](C(=O)O)CCCCNC1=O [Compound 651] | < 100 nM
O=C1CC2(CCCC2)NC(=O)CCCCNC(=O)[C@@H](Cc2ccc(NC(=O)[C@H](Cc3ccccc3Cl)NC(=O)C(F)(F)c3ccccc3)cc2)N1 [Compound 652] | 100 to 1000 nM
C[C@H]1NC(=O)[C@@H](Cc2ccc(NC(=O)[C@H](Cc3ccccc3Cl)Nc3nc4ccccc4o3)cc2)NC(=O)CC2(CCCC2)CC(=O)N(C)CCOCCN(C)C1=O [Compound 654] | < 100 nM
CC(O)[C@H]1NC(=O)[C@@H](Cc2ccc(NC(=O)[C@@H](NC(=O)C(F)(F)c3ccccc3)C3CCCCC3)cc2)NC(=O)CC2(CCCC2)CC(=O)N(C)CCOCCN(C)C1=O (stereo partly drawn) [Compound 655] | < 100 nM
NC(=O)c1ccccc1C[C@H]1NC(=O)[C@@H](Cc2ccc(NC(=O)[C@H](Cc3ccccc3Cl)NC(=O)Cc3ccc(CO)cc3)cc2)NC(=O)CC2(CCCC2)CC(=O)N[C@H](C(=O)O)CCCCNC1=O [Compound 659] | < 100 nM
C[C@H]1NC(=O)[C@@H](Cc2ccc(NC(=O)[C@@H](Nc3nc4ccccc4o3)C3CCCCC3)cc2)NC(=O)CC2(CCCC2)CC(=O)N(C)CCOCCN(C)C1=O [Compound 663] | < 100 nM
C[C@H]1NC(=O)[C@@H](Cc2ccc(NC(=O)[C@@H](Nc3nc4ccccc4o3)C3CCCCC3)cc2)NC(=O)CC2(CCCC2)CC(=O)NCCCCCNC1=O [Compound 664] | < 100 nM
C[C@H]1NC(=O)[C@@H](Cc2ccc(NC(=O)[C@@H](Nc3nc4ccccc4o3)C3CCCCC3)cc2)NC(=O)CC2(CCCC2)CC(=O)N(C)CCCCCN(C)C1=O [Compound 665] | < 100 nM
COC(=O)c1coc(N[C@@H](Cc2ccccc2Cl)C(=O)Nc2ccc(C[C@H]3NC(=O)CC4(CCCC4)CC(=O)N(C)CCOCCN(C)C(=O)[C@@H](C)NC3=O)cc2)n1 [Compound 666] | < 100 nM
CN1CCCC[C@@H](C(=O)O)N(C)C(=O)CC2(CCCC2)CC(=O)N[C@H](Cc2ccc(NC(=O)[C@H](Cc3ccccc3Cl)NC(=O)C(F)(F)c3ccccc3)cc2)C(=O)N[C@H](CCC(N)=O)C1=O [Compound 667] | < 100 nM
CN1CCCC[C@@H](C(=O)O)N(C)C(=O)CC2(CCCC2)CC(=O)N[C@H](Cc2ccc(NC(=O)[C@@H](NC(=O)C(F)(F)c3ccccc3)C3CCCCC3)cc2)C(=O)N[C@H](CCC(N)=O)C1=O [Compound 668] | < 100 nM
CN1CCCCCN(C)C(=O)[C@@H](CC(N)=O)NC(=O)[C@@H](Cc2ccc(NC(=O)[C@H](Cc3ccccc3Cl)NC(=O)C(F)(F)c3ccccc3)cc2)NC(=O)CC2(CCCC2)CC1=O [Compound 669] | < 100 nM
CN1CCCCCN(C)C(=O)[C@@H](CC(N)=O)NC(=O)[C@@H](Cc2ccc(NC(=O)[C@@H](NC(=O)C(F)(F)c3ccccc3)C3CCCCC3)cc2)NC(=O)CC2(CCCC2)CC1=O [Compound 670] | < 100 nM
